# According to US20160361311A1, “LIGANDS THAT TARGET HEPATITIS C VIRUS E2 PROTEIN” (AMERICAN UNIVERSITY OF CAIRO, priority 2014, published 2016):
# Experiments:
# [1] = system: HCV genotypes 1a, 1b, 2a, 2b, 4a and 6a; assay: HCVpp infection assays over all genotypes tested (summary statements); assay type: cell-based
# Experimental: (§1) Pseudotyped retroviral particles harboring HCV envelope proteins (HCVpp) from different genotypes were produced as described previously. A plasmid encoding the feline endogenous virus RD114 glycoprotein [35] was used for the production of RD114pp. Both HCVpp and RD114pp expressed Firefly luciferase.
# (§2) To identify ligands that inhibit HCV infection, Huh-7 cells were seeded in 96-well plates and treated the day after with six different concentrations of each ligand diluted in DMSO in duplicate using a Zephyr automated liquid handling workstation (Caliper BioSciences, Hopkinton, Mass.). The final concentration of DMSO (1%) was adjusted to be the same for all ligand concentrations. Cells treated with DMSO were used as negative controls. Cells treated with different concentrations of anti-CD81 (JS-81 from BD Pharmingen, San Jose, Calif.) 1 hour before infection, were also used as positive controls. The third day, RD114pp, HCVpp or HCVcc were inoculated and incubated for 30 hours at 37° C. Firefly and Gaussia luciferase assays were performed as indicated by the manufacturer (Promega, San Luis Obispo, Calif.).
# The analysis of the effect of 281816 ligand on Huh-7 infection by HCVpp bearing envelope proteins from different genotypes was performed in 24-well plates using the method described above. […]
# RD114pp = RD114pp infection of Huh-7 cells (luciferase); assay type: cell-based, feline endogenous virus RD114; conditions: Feline endogenous virus RD114, Huh-7, 30 h, read-out: IC50 RD114pp
# Experimental: as §1, §2
# Pseudotyped retroviral particles harboring the envelope protein of an endogenous feline retrovirus (RD114pp) were first used to determine the specificity and the safety of molecules.
# [2] = target: T1, HCV E2 protein binding to native CD81 on Raji cells (Hepatitis C virus genotype 1b, UniProt Q9WMX2); assay: Flow cytometry: recombinant HCV E2 binding to native CD81 on Raji cells; assay type: cell-based, human; conditions: E2 pre-incubated with 1-400 μM ligand; flow cytometry MFI
# T1 construct: encoding amino acids 384-656 of the Con1 envelope protein 2 ectodomain (eE2); Protein A (C); made in house; host or cells: E2: HEK293T cells (inferred); CD81: endogenous on Raji cells
# Experimental: The human B cell line, Raji, which expresses high levels of CD81 on its surface was used to determine if ligands could inhibit the binding of HCV-E2 protein to native CD81. Cells were grown in RPMI medium (10% fetal calf serum, 1% penicillin/streptomycin, 1% L-glutamine, 1% non-essential amino acids, 1% sodium pyruvate, pH 7.4) at 37° C. in an atmosphere of 5% CO2. Purified HCV-E2 protein (4 μg) was pre-incubated with 1,5,15, 50, 100 or 400 μM of the ligand 281816 for 25 min RT. After pre-incubation the E2-ligand complex was added to the cells and incubated for 25 min. The complexes were washed from the cells and 0.5 μg of anti E2 antibody (clone H53) was added followed by secondary anti mouse-FITC (Southern Biotechnology). The cells were washed, fixed with 3% paraformaldehyde, and analyzed by flow cytometry (BD FACSCalibur, software: Cell Quest Pro) analysis. The mean fluorescence intensity (MFI) was calculated using Flowjo software (TreesStar, www.flowjo.com).
# Ligand 281816 was selected based on the prediction by docking that it would bind to a site on the HCV E2 protein where CD81 binds. To confirm that the binding of 281816 to E2 inhibits the HCV E2-CD81 interaction, flow cytometry was used to monitor the binding of a recombinant form of the E2 protein to native CD81 overexpressed on Raji cells as a function of 281816 concentration.
# recombinant E2 protein = target: T2, recombinant E2 protein (Hepatitis C virus genotype 1b, UniProt Q9WMX2); assay: Surface plasmon resonance (Biacore T100) binding to recombinant E2 immobilized on CM5 chip
# T2 construct: encoding amino acids 384-656 of the Con1 envelope protein 2 ectodomain (eE2); made in house; host or cells: HEK293T cells (lentiviral, secreted)
# From the text: A construct containing the sequence encoding amino acids 384-656 of the Con1 envelope protein 2 ectodomain (eE2), a genoptype 1 E2 sequence, was cloned into a lentiviral expression vector with a carboxy-terminal Protein A tag separated by a PreScission Protease cleavage consensus sequence. eE2-ProtA was stably expressed in HEK293T cells using lentiviral infection. The protein was secreted into the media and supernatants were purified using IgG Sepharose (GE Healthcare, Piscataway, N.J.). eE2-ProtA was eluted with 100 mM sodium citrate and 20 mM KCl at pH 3 directly into tubes containing 1M Tris pH 9 for immediate neutralization. PreScission Protease was added to the eluted sample at a ratio of 1:50 (enzyme:eE2), and the digest was then dialyzed into 20 mM HEPES pH 7.5, 250 mM NaCl, 5% glycerol. eE2 was separated from the cleaved tag and the PreScission Protease by ion exchange chromatography.
# The set of 34 of the ligands predicted by AutoDock to bind to E2 were tested experimentally to determine if they bind to recombinant E2 protein immobilized on a chip using surface Plasmon resonance. The SPR analyses were performed using a Biacore T100 workstation (GE Healthcare, NJ, USA) and Prot-A-tagged HCV E2 protein. 1 μM ProtA-HCV E2 was diluted into 10 mM sodium acetate buffer pH 5 and immobilized for 15 min at a flow speed of 5 μl/min onto a CM5 sensor chip using amine coupling (EDC-NHS). Approximately 10,000 response units (RU) of protein were immobilized on the chip. His-CD81-LEL (Bioclone-CA/USA) binding to HCV E2 was tested prior to injecting the ligands to confirm the E2 protein was functional and would bind CD81-LEL. In a typical experiment with CD81, […] of his-CD81 in 114 μl PBS was injected into channel 2 and 106.4 RUs of CD81 bound to the E2 on the chip. This was followed by testing the binding of the 34 virtual screening hits where the ligands were prepared as 200 μM solutions in PBS and they were introduced to the protein using a pre-programmed 3 min association and 1 min dissociation interval. The response was measured at two time points during dissociation, 10 and 50 seconds, to obtain information on the rate of ligand dissociation from E2. Twenty-three of the ligands predicted by AutoDock to bind to E2 were observed by SPR to bind to the recombinant protein (Table 2). The measured responses for the ligands that bound varied from 54 to 276 RUs. Data was also obtained on the rate of ligand dissociation by measuring the amount of ligand remaining bound at two time points, dissociation 1 (10 seconds) and dissociation 2 (50 seconds), during the rinsing of the chip with buffer (FIG. 8). The majority of the ligands dissociated quickly, as one might expect for small molecules that bind to the surface of a protein.
# HCVpp 4a = assay: HCVpp genotype infection of Huh-7 cells, 24-well; assay type: cell-based, HCV; conditions: Hepatitis C virus
# Experimental: as §1, §2
# The analysis of the effect of 281816 ligand on Huh-7 infection by HCVpp bearing envelope proteins from different genotypes was performed in 24-well plates using the method described above. This ligand was also screened for toxicity to the hepatocytes using the MTS (3-(4,5-dimethylthiazol-2-yl)-5-(3-carboxymethoxyphenyl)-2-(4-sulfophenyl)-2Htetrazolium) assay.
# To determine if 281816 would inhibit HCV genotypes other than 2a, a series of infection assays were performed with HCVpp bearing envelope proteins from a number of different HCV genotypes.
# T2 sequence (Q9WMX2 384-656): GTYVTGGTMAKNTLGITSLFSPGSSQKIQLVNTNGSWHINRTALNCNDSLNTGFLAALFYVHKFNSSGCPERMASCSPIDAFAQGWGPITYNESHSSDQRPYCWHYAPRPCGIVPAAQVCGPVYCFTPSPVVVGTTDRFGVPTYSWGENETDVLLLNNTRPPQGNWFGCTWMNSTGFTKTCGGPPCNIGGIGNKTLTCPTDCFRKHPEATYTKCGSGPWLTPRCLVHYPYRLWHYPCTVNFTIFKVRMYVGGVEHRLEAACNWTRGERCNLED
# T1 sequence (Q9WMX2 384-656): as above
smiles,measurement,setting,value
CSc1ccc2c(c1)C(N1CCN(C)CC1)Cc1ccccc1S2 (centres unmarked) [Ligand 281816],IC50,"[1]; Hepatitis C virus, read-out: IC50 range over HCV genotypes",2.2 to 4.6 µM
same,block of hepatocyte infection (in words),"[1]; genotypes 1a, 1b, 2a, 2b, 4a and 6a",block infection of hepatocytes by each of the HCV genotypes and subtypes tested
same,IC50,RD114pp,> 10 µM
same,inhibition of E2 protein binding to CD81 on Raji cells,[2],inhibited by 281816 in a dose-dependent manner up to 100 μM
same,Binding (RU),"recombinant E2 protein; 200 μM ligand in PBS, 3 min association",64.5 RU
same,Dissociation 1 (RU),recombinant E2 protein; response remaining 10 sec after rinsing with buffer,3.7 RU
same,Dissociation 2 (RU),recombinant E2 protein; response remaining 50 sec after rinsing with buffer,0.9 RU
same,IC50,HCVpp 4a,3.44 µM
